How the values were obtained:
CD-1 mice = assay: Nociceptive behavior model elicited by intraplantar injection of formalin; type: in vivo; conditions: 200 mg/kg oral
Method: Mice (n=6 per group) were habituated under inverted Plexiglas observation chamber for 30 minutes to allow them to acclimatize to their surroundings. […] Mice were immediately transferred to their individual observational chamber. […] Mirrors positioned behind the chambers enabled observation of the right hind paw when it was obscured from direct view. […] These behavioral reactions observed for the first five minutes are due to direct action of the irritant on sensory nerve endings where is believed to be as a result of inflammation in the later phase. […] Mice were treated with curcumin (50, 100, 150 or 200 mg/kg) or ibuprofen (200 mg/kg) orally half an hour before intraplantar formalin injection.

Wistar rats = assay: Adjuvant-induced arthritis (AIA) rat model (paw edema, allodynia, ankle width); type: in vivo; design: Paw edema, Mean ± SD: unit not given beside the values; Allodynia, Mean ± SD / Ankle Width, Mean ± SD: unit not given here; conditions: for reduction in ankle diameter vs. vehicle control / reduction in pain sensitivity (allodynia) / reduction in paw edema vs. vehicle control / Allodynia, Mean ± SD / Paw edema, Mean ± SD: 100 mg/kg oral daily; for Ankle Width, Mean ± SD: AIA rats, oral 100 mg/kg; for Allodynia, Mean ± SD / Paw edema, Mean ± SD: AIA model, Wistar rats
Method: This adjuvant-induced rat arthritis model was used to evaluate the anti-pain and anti-inflammatory activity of a Curcuma:Morus (C:M) composition. Purpose bred female Wistar rats weighing 150-175 g (Charles River Laboratories, Inc., Wilmington, Mass.) were acclimated upon arrival for a week before being assigned randomly to their respective group. The rats were provided with fresh water and rodent chow diet ad libitum while being housed in a temperature controlled room (22.2° C.) on a 12 hour light-dark cycle. Treatment was started a day before antigen inoculation, wherein animals (n=9) were orally gavaged with a positive control ibuprofen, a 1C:1M test article, or a vehicle only control (propylene glycol). On the next day, arthritis was induced by sensitizing rats with an injection of complete Freund's adjuvant containing 5 mg/ml (w/v) suspension of heat killed Mycobacterium tuberculosis in liquid paraffin into the subplantar region of right hind paw of sedated rats (Currey, Ann. Rheum. Dis. 29:314, 1970; Whitehouse et al., Can. Med. Assoc. J. 129:249, 1983) an hour after a second treatment dose.
(§1) Treatment with the controls or test articles was started a day before intraplantar injection of complete adjuvant into the right hind paw. The anti-inflammatory effect of a C:M composition was reflected in the measured change in paw edema. Rats (n=9) were treated orally with 1C:1M composition (200 mg/kg, 100 mg/kg or 50 mg/kg), ibuprofen (100 mg/kg) or vehicle for 14 days. Data are expressed as mean±SD and p-values were calculated against vehicle. Paw edema was measured with the use of a plethysmometer (IITC, Woodland Hills, Calif.; Model 520) on day 1 (before antigen), day 3, 5, 7, 9 and 13 after antigen injection.
Treatment with the controls or test articles was started a day before intraplantar injection of complete adjuvant into the right hind paw. The anti-pain effect of a C:M composition was reflected by allodynia (induced pain). Rats (n=9) were treated orally with 1C:1M composition (200 mg/kg, 100 mg/kg or 50 mg/kg), ibuprofen (100 mg/kg) or vehicle for 14 days. Data are expressed as mean±SD and p-values were calculated against vehicle. Allodynia was evaluated by responsiveness to pressure applied perpendicular to the central plantar surface of the right hind paw using the Randall—Selitto test (Randall and Selitto, Arch. Intl Pharmacodyn Therap. 133:233, 1957). A positive response to the applied mechanical pressure, noted by sharp withdrawal of the paw, was recorded automatically by an electronic Von Frey Anesthesiometer (2390 series Electrovonfrey, IITC, Woodland Hills, Calif.) (Vivancos et al., 2004).
as §1, with “ankle diameter.” for “paw edema.”, “vehicle Ankle diameter” for “vehicle. Paw edema”, “using” for “with the use of”, “Pocket Thickness Gage (7309, Mitutoyo corp. Japan)” for “plethysmometer (IITC, Woodland Hills, Calif.; Model 520)”

CC(C)Cc1ccc(C(C)C(=O)O)cc1 (stereo not shown) [Ibuprofen]
Pain Sensitivity 20-40 Minutes after Formalin Injection % ↓ vs. Vehicle (CD-1 mice): 63.5% | reduction in ankle diameter vs. vehicle control (Wistar rats; day 3): 37.2% | reduction in pain sensitivity (allodynia) (Wistar rats; day 3): 31.3% | reduction in paw edema vs. vehicle control (Wistar rats; day 3): 28.8% | reduction in ankle diameter vs. vehicle control (Wistar rats; day 5): 34.8% | reduction in pain sensitivity (allodynia) (Wistar rats; day 5): 39.5% | reduction in paw edema vs. vehicle control (Wistar rats; day 5): 21.1% | reduction in ankle diameter vs. vehicle control (Wistar rats; day 7): 36.8% | reduction in pain sensitivity (allodynia) (Wistar rats; day 7): 48.8% | reduction in paw edema vs. vehicle control (Wistar rats; day 7): 19.4% | reduction in ankle diameter vs. vehicle control (Wistar rats; day 9): 33.5% | reduction in pain sensitivity (allodynia) (Wistar rats; day 9): 52.5% | reduction in paw edema vs. vehicle control (Wistar rats; day 9): 24.3% | reduction in ankle diameter vs. vehicle control (Wistar rats; day 13): 44.2% | reduction in pain sensitivity (allodynia) (Wistar rats; day 13): 52.5% | reduction in paw edema vs. vehicle control (Wistar rats; day 13): 32.7% | Ankle Width, Mean ± SD (Wistar rats; Day 3): 1.1 ± 0.1 | Ankle Width, Mean ± SD (Wistar rats; Day 5): 1.0 ± 0.1 | Ankle Width, Mean ± SD (Wistar rats; Day 7): 1.2 ± 0.1 | Ankle Width, Mean ± SD (Wistar rats; Day 9): 1.0 ± 0.2 | Ankle Width, Mean ± SD (Wistar rats; Day 13): 0.8 ± 0.1 | Allodynia, Mean ± SD (Wistar rats; Day 3): 67.4 ± 5.6 | Paw edema, Mean ± SD (Wistar rats; Day 3): 3.5 ± 0.7 | Allodynia, Mean ± SD (Wistar rats; Day 5): 54.8 ± 2.6 | Paw edema, Mean ± SD (Wistar rats; Day 5): 3.1 ± 0.8 | Allodynia, Mean ± SD (Wistar rats; Day 7): 43.0 ± 4.6 | Paw edema, Mean ± SD (Wistar rats; Day 7): 3.1 ± 0.7 | Allodynia, Mean ± SD (Wistar rats; Day 9): 38.8 ± 2.3 | Paw edema, Mean ± SD (Wistar rats; Day 9): 2.7 ± 0.6 | Allodynia, Mean ± SD (Wistar rats; Day 13): 32.9 ± 2.6 | Paw edema, Mean ± SD (Wistar rats; Day 13): 2.1 ± 0.58

— patent US20230190852A1, “COMPOSITIONS AND METHODS FOR JOINT HEALTH” (Unigen, Inc., priority 2013, published 2023)
